Numbered stars: 1 amine (or outer) side, 2 acyl side, 3 side chain; on linkers, the order of the positions; unused ones are H or OH. Side chains are listed from the residue outwards. Peptide text beside a SMILES is read from it. * marks the point of attachment. C18 diacid = O=C(O)CCCCCCCCCCCCCCCCC(=O)*; γGlu = O=C(O)[C@H](CCC(=O)[*:2])N[*:1]; AEEA = NCCOCCOCC(=O)O
Test: Assay (II) PK i.v. minipig, in vivo half-life
Design: species or system Göttingen mini-pigs
Conditions: male, Göttingen, minipig, iv
Procedure, shortened: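 Plasma levels after a single 6 nmol/kg intravenous dose in five male Göttingen mini-pigs were measured by TFC/LC/MS/MS against spiked-plasma calibration, sampling to 240 h. Vehicle: 50 mM K2HPO4, 0.05% tween 80, pH 8.0. Individual profiles analysed non-compartmentally for half-life.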

Row | SMILES | Half-life minipig, Assay (II) [h]
1 | CC[C@H](C)[C@H](NC(=O)[C@H](Cc1ccc(O)cc1)NC(=O)[C@H](CCCNC(=N)N)NC(=O)[C@H](CCCNC(=N)N)NC(=O)[C@H](CC(C)C)NC(=O)[C@H](CC(=O)O)NC(=O)[C@H](C)NC(=O)[C@H](C)NC(=O)[C@H](Cc1ccc(O)cc1)NC(=O)[C@H](CCC(N)=O)NC(=O)[C@H](C)NC(=O)[C@H](CCSC)NC(=O)[C@H](CCCCNC(=O)COCCOCCNC(=O)COCCOCCNC(=O)CC[C@H](NC(=O)CCCCCCCCCCCCCCCCC(=O)O)C(=O)O)NC(=O)[C@H](CCC(=O)O)NC(=O)[C@@H]1CCCN1C(=O)[C@@H](NC(=O)[C@H](C)NC(=O)[C@H](CC(N)=O)NC(=O)[C@H](CC(=O)O)NC(=O)CNC(=O)[C@@H]1CCCN1C(=O)[C@H](Cc1ccc(O)cc1)NC(=O)[C@@H](NC(=O)[C@@H]1CCCN1C(=O)[C@H](CCC(=O)O)NC(=O)[C@H](CC(C)C)NC(=O)[C@@H]1CCCN1)C(C)C)[C@@H](C)O)C(=O)N[C@@H](CC(N)=O)C(=O)N[C@@H](CCSC)C(=O)N[C@@H](CC(C)C)C(=O)N[C@H](C(=O)N[C@@H](CCCNC(=N)N)C(=O)N1CCC[C@H]1C(=O)N[C@@H](CCCNC(=N)N)C(=O)N[C@@H](Cc1ccc(O)cc1)C(N)=O)[C@@H](C)O [Compound R] (H-PLEPVYPGDNATPEK([AEEA-AEEA-γGlu-C18 diacid])MAQYAADLRRYINMLTRPRY-NH2; N-terminus and C-terminus assumed) | 40

Same assay, conditions: male, Göttingen, minipig, iv, Half-life minipig, Assay (II)

Row | SMILES | half-life [h]
2 | CC[C@H](C)[C@H](NC(=O)[C@H](Cc1ccc(O)cc1)NC(=O)[C@H](CCCNC(=N)N)NC(=O)[C@H](CCCNC(=N)N)NC(=O)[C@H](CC(C)C)NC(=O)[C@H](CC(=O)O)NC(=O)[C@H](C)NC(=O)[C@H](CCCCNC(=O)COCCOCCNC(=O)COCCOCCNC(=O)CC[C@H](NC(=O)CCCCCCCCCCCCCCCCC(=O)O)C(=O)O)NC(=O)[C@H](Cc1ccc(O)cc1)NC(=O)[C@H](CCC(N)=O)NC(=O)[C@H](C)NC(=O)[C@H](CCSC)NC(=O)[C@H](CCC(N)=O)NC(=O)[C@H](CCC(=O)O)NC(=O)[C@@H]1CCCN1C(=O)[C@@H](NC(=O)[C@H](C)NC(=O)[C@H](CC(N)=O)NC(=O)[C@H](CC(=O)O)NC(=O)CNC(=O)[C@@H]1CCCN1C(=O)[C@H](Cc1ccc(O)cc1)NC(=O)[C@@H](NC(=O)[C@@H]1CCCN1C(=O)[C@H](CCC(=O)O)NC(=O)[C@@H](N)CC(C)C)C(C)C)[C@@H](C)O)C(=O)N[C@@H](CC(N)=O)C(=O)N[C@@H](CCSC)C(=O)N[C@@H](CC(C)C)C(=O)N[C@H](C(=O)N[C@@H](CCCNC(=N)N)C(=O)N1CCC[C@H]1C(=O)N[C@@H](CCCNC(=N)N)C(=O)N[C@@H](Cc1ccc(O)cc1)C(N)=O)[C@@H](C)O [Compound AU] (H-LEPVYPGDNATPEQMAQYK([AEEA-AEEA-γGlu-C18 diacid])ADLRRYINMLTRPRY-NH2; N-terminus and C-terminus assumed) | 59
3 | CC[C@H](C)[C@H](NC(=O)[C@H](Cc1ccc(O)cc1)NC(=O)[C@H](CCCNC(=N)N)NC(=O)[C@H](CCCNC(=N)N)NC(=O)[C@H](CC(C)C)NC(=O)[C@H](CC(=O)O)NC(=O)[C@H](C)NC(=O)[C@H](C)NC(=O)[C@H](Cc1ccc(O)cc1)NC(=O)[C@H](CCC(N)=O)NC(=O)[C@H](C)NC(=O)[C@H](CCSC)NC(=O)[C@H](CCC(N)=O)NC(=O)[C@H](CCC(=O)O)NC(=O)[C@@H]1CCCN1C(=O)[C@@H](NC(=O)[C@H](CCCCNC(=O)COCCOCCNC(=O)COCCOCCNC(=O)CC[C@H](NC(=O)CCCCCCCCCCCCCCCCC(=O)O)C(=O)O)NC(=O)[C@H](CC(N)=O)NC(=O)[C@H](CC(=O)O)NC(=O)CNC(=O)[C@@H]1CCCN1C(=O)[C@H](Cc1ccc(O)cc1)NC(=O)[C@@H](NC(=O)[C@@H]1CCCN1C(=O)[C@H](CCC(=O)O)NC(=O)[C@H](CC(C)C)NC(=O)[C@@H]1CCCN1)C(C)C)[C@@H](C)O)C(=O)N[C@@H](CC(N)=O)C(=O)N[C@@H](CCSC)C(=O)N[C@@H](CC(C)C)C(=O)N[C@H](C(=O)N[C@@H](CCCNC(=N)N)C(=O)N1CCC[C@H]1C(=O)N[C@@H](CCCNC(=N)N)C(=O)N[C@@H](Cc1ccc(O)cc1)C(N)=O)[C@@H](C)O [Compound V] | 36
4 | CC[C@H](C)[C@H](NC(=O)[C@H](Cc1ccc(O)cc1)NC(=O)[C@H](CCCNC(=N)N)NC(=O)[C@H](CCCNC(=N)N)NC(=O)[C@H](CC(C)C)NC(=O)[C@H](CC(=O)O)NC(=O)[C@H](C)NC(=O)[C@H](C)NC(=O)[C@H](Cc1ccc(O)cc1)NC(=O)[C@H](CCC(N)=O)NC(=O)[C@H](C)NC(=O)[C@H](CCSC)NC(=O)[C@H](CCC(N)=O)NC(=O)[C@H](CCC(=O)O)NC(=O)[C@@H]1CCCN1C(=O)[C@@H](NC(=O)[C@H](CCCCNC(=O)COCCOCCNC(=O)COCCOCCNC(=O)CC[C@H](NC(=O)CCCCCCCCCCCCCCCCC(=O)O)C(=O)O)NC(=O)[C@H](CC(N)=O)NC(=O)[C@H](CC(=O)O)NC(=O)CNC(=O)[C@@H]1CCCN1C(=O)[C@H](Cc1ccc(O)cc1)NC(=O)[C@@H](NC(=O)[C@@H]1CCCN1C(=O)[C@H](CCC(=O)O)NC(=O)[C@@H](N)CC(C)C)C(C)C)[C@@H](C)O)C(=O)N[C@@H](CC(N)=O)C(=O)N[C@@H](CCSC)C(=O)N[C@@H](CC(C)C)C(=O)N[C@H](C(=O)N[C@@H](CCCNC(=N)N)C(=O)N1CCC[C@H]1C(=O)N[C@@H](CCCNC(=N)N)C(=O)N[C@@H](Cc1ccc(O)cc1)C(N)=O)[C@@H](C)O [Compound BD] | 17
5 | CC[C@H](C)[C@H](NC(=O)[C@H](Cc1ccc(O)cc1)NC(=O)[C@H](CCCNC(=N)N)NC(=O)[C@H](CCCNC(=N)N)NC(=O)[C@H](CC(C)C)NC(=O)[C@H](CC(=O)O)NC(=O)[C@H](C)NC(=O)[C@H](C)NC(=O)[C@H](Cc1ccc(O)cc1)NC(=O)[C@H](CCC(N)=O)NC(=O)[C@H](C)NC(=O)[C@H](CCSC)NC(=O)[C@H](CCC(N)=O)NC(=O)[C@H](CCC(=O)O)NC(=O)[C@@H]1CCCN1C(=O)[C@H](CCCCNC(=O)COCCOCCNC(=O)COCCOCCNC(=O)CC[C@H](NC(=O)CCCCCCCCCCCCCCCCC(=O)O)C(=O)O)NC(=O)[C@H](C)NC(=O)[C@H](CC(N)=O)NC(=O)[C@H](CC(=O)O)NC(=O)CNC(=O)[C@@H]1CCCN1C(=O)[C@H](Cc1ccc(O)cc1)NC(=O)[C@@H](NC(=O)[C@@H]1CCCN1C(=O)[C@H](CCC(=O)O)NC(=O)[C@H](CC(C)C)NC(=O)[C@@H]1CCCN1)C(C)C)C(=O)N[C@@H](CC(N)=O)C(=O)N[C@@H](CCSC)C(=O)N[C@@H](CC(C)C)C(=O)N[C@H](C(=O)N[C@@H](CCCNC(=N)N)C(=O)N1CCC[C@H]1C(=O)N[C@@H](CCCNC(=N)N)C(=O)N[C@@H](Cc1ccc(O)cc1)C(N)=O)[C@@H](C)O [Compound U] (H-PLEPVYPGDNAK([AEEA-AEEA-γGlu-C18 diacid])PEQMAQYAADLRRYINMLTRPRY-NH2; N-terminus and C-terminus assumed) | 23
6 | CC[C@H](C)[C@H](NC(=O)[C@H](Cc1ccc(O)cc1)NC(=O)[C@H](CCCNC(=N)N)NC(=O)[C@H](CCCNC(=N)N)NC(=O)[C@H](CC(C)C)NC(=O)[C@H](CC(=O)O)NC(=O)[C@H](C)NC(=O)[C@H](C)NC(=O)[C@H](Cc1ccc(O)cc1)NC(=O)[C@H](CCC(N)=O)NC(=O)[C@H](C)NC(=O)[C@H](CCSC)NC(=O)[C@H](CCCCNC(=O)COCCOCCNC(=O)COCCOCCNC(=O)CC[C@H](NC(=O)CCCCCCCCCCCCCCCCC(=O)O)C(=O)O)NC(=O)[C@H](CCC(=O)O)NC(=O)[C@@H]1CCCN1C(=O)[C@@H](NC(=O)[C@H](C)NC(=O)[C@H](CC(N)=O)NC(=O)[C@H](CC(=O)O)NC(=O)CNC(=O)[C@@H]1CCCN1C(=O)[C@H](Cc1ccc(O)cc1)NC(=O)[C@@H](NC(=O)[C@@H]1CCCN1C(=O)[C@H](CCC(=O)O)NC(=O)[C@H](CC(C)C)NC(=O)[C@@H]1CCCN1)C(C)C)[C@@H](C)O)C(=O)N[C@@H](CC(N)=O)C(=O)N[C@@H](CCSC)C(=O)N[C@@H](CC(C)C)C(=O)N[C@H](C(=O)N[C@@H](CCCNC(=N)N)C(=O)N1CCC[C@H]1C(=O)N[C@@H](CCCNC(=N)N)C(=O)N[C@@H](Cc1ccc(O)cc1)C(N)=O)[C@@H](C)O [Compound R] (H-PLEPVYPGDNATPEK([AEEA-AEEA-γGlu-C18 diacid])MAQYAADLRRYINMLTRPRY-NH2; N-terminus and C-terminus assumed) | 44
7 | CC[C@H](C)[C@H](NC(=O)[C@H](Cc1ccc(O)cc1)NC(=O)[C@H](CCCNC(=N)N)NC(=O)[C@H](CCCNC(=N)N)NC(=O)[C@H](CC(C)C)NC(=O)[C@H](CC(=O)O)NC(=O)[C@H](C)NC(=O)[C@H](C)NC(=O)[C@H](Cc1ccc(O)cc1)NC(=O)[C@H](CCC(N)=O)NC(=O)[C@H](C)NC(=O)[C@H](CCSC)NC(=O)[C@H](CCC(N)=O)NC(=O)[C@H](CCC(=O)O)NC(=O)[C@@H]1CCCN1C(=O)[C@@H](NC(=O)[C@H](C)NC(=O)[C@H](CC(N)=O)NC(=O)[C@H](CC(=O)O)NC(=O)CNC(=O)[C@@H]1CCCN1C(=O)[C@H](CCCCNC(=O)COCCOCCNC(=O)COCCOCCNC(=O)CC[C@H](NC(=O)CCCCCCCCCCCCCCCCC(=O)O)C(=O)O)NC(=O)[C@@H](NC(=O)[C@@H]1CCCN1C(=O)[C@H](CCC(=O)O)NC(=O)[C@H](CC(C)C)NC(=O)[C@@H]1CCCN1)C(C)C)[C@@H](C)O)C(=O)N[C@@H](CC(N)=O)C(=O)N[C@@H](CCSC)C(=O)N[C@@H](CC(C)C)C(=O)N[C@H](C(=O)N[C@@H](CCCNC(=N)N)C(=O)N1CCC[C@H]1C(=O)N[C@@H](CCCNC(=N)N)C(=O)N[C@@H](Cc1ccc(O)cc1)C(N)=O)[C@@H](C)O [Compound AA] | 17
8 | CC[C@H](C)[C@H](NC(=O)[C@H](Cc1ccc(O)cc1)NC(=O)[C@H](CCCNC(=N)N)NC(=O)[C@H](CCCNC(=N)N)NC(=O)[C@H](CC(C)C)NC(=O)[C@H](CC(=O)O)NC(=O)[C@H](C)NC(=O)[C@H](C)NC(=O)[C@H](Cc1ccc(O)cc1)NC(=O)[C@H](CCC(N)=O)NC(=O)[C@H](C)NC(=O)[C@H](CCSC)NC(=O)[C@H](CCCCNC(=O)COCCOCCNC(=O)COCCOCCNC(=O)CC[C@H](NC(=O)CCCCCCCCCCCCCCCCC(=O)O)C(=O)O)NC(=O)[C@H](CCC(=O)O)NC(=O)[C@@H]1CCCN1C(=O)[C@@H](NC(=O)[C@H](C)NC(=O)[C@H](CC(N)=O)NC(=O)[C@H](CC(=O)O)NC(=O)CNC(=O)[C@@H]1CCCN1C(=O)[C@H](Cc1ccc(O)cc1)NC(=O)[C@@H](NC(=O)[C@@H]1CCCN1C(=O)[C@H](CCC(=O)O)NC(=O)[C@@H](N)CC(C)C)C(C)C)[C@@H](C)O)C(=O)N[C@@H](CC(N)=O)C(=O)N[C@@H](CCSC)C(=O)N[C@@H](CC(C)C)C(=O)N[C@H](C(=O)N[C@@H](CCCNC(=N)N)C(=O)N1CCC[C@H]1C(=O)N[C@@H](CCCNC(=N)N)C(=O)N[C@@H](Cc1ccc(O)cc1)C(N)=O)[C@@H](C)O [Compound AZ] (H-LEPVYPGDNATPEK([AEEA-AEEA-γGlu-C18 diacid])MAQYAADLRRYINMLTRPRY-NH2; N-terminus and C-terminus assumed) | 20

— patent US20150141336A1, “Pancreatic Peptide Compounds and Use” (Novo Nordisk A/S, priority 2012, published 2015)
